Assay results reported in patent publication US6706736B2, “Antidepressant azaheterocyclylmethyl derivatives of oxaheterocycle-fused-[1,4]-benzodioxans” (Wyeth, priority 2001, dated 2004).
pIC50, pKi: −log10 of the molar value. Counter-ions that a name gives are not always drawn. Like-named read-outs stand apart in the source and are kept apart here.

Experiments:
[1] = target: T1, cloned human 5-HT1A receptors (Homo sapiens, UniProt P08908); test: 35S-GTPγS binding assay, antagonist activity at 5-HT1A receptors; assay type: biochemical; settings: reversal of standard agonist 8-OHDPAT; for pIC50: read-out: 5-HT1A Function IC50; for 5-HT1A Function Imax (maximum inhibitory effect): value in parentheses
T1 construct: expressed in transfected cells
T1 sequence (P08908 1-422): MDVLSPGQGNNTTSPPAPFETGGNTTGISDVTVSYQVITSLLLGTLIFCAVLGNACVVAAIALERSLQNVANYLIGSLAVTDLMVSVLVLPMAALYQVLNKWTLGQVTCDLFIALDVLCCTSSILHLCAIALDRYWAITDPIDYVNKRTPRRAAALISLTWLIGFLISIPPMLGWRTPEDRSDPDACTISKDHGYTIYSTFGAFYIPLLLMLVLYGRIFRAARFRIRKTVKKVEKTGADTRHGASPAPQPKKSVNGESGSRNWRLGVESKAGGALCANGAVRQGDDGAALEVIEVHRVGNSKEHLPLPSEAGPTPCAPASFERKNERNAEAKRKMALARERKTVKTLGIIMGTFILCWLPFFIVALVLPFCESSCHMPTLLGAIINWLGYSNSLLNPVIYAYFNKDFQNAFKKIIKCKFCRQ
Procedure: Antagonist activity at 5-HT1A receptors was established by using a ^35S-GTPγS binding assay similar to that used by Lazareno and Birdsall (Br. J. Pharmacol. 109: 1120, 1993), in which the test compound's ability to affect the binding of ^35S-GTPγS to membranes containing cloned human 5-HT1A receptors was determined. Agonists produce an increase in binding whereas antagonists produce no increase but rather reverse the effects of the standard agonist 8-OHDPAT. The test compound's maximum inhibitory effect is represented as the Imax, while its potency is defined by the IC50.

human 5-HT1A receptors = target: T2, human 5-HT1A receptors (Homo sapiens, UniProt P08908); test: [3H] 8-OHDPAT displacement from 5-HT1A receptor in transfected CHO cells; assay type: binding
T2 construct: expressed in transfected cells; host or cells: CHO cells (stably transfected)
T2 sequence (P08908 1-422): T1 sequence (P08908 1-422)
Source text: High affinity for the serotonin 5-HT1A receptor was established by testing the claimed compound's ability to displace [^3H] 8-OHDPAT (dipropylaminotetralin) from the 5-HT1A serotonin receptor following a modification of the procedure of Hall et al., J. Neurochem. 44, 1685 (1985) which utilizes CHO cells stably transfected with human 5-HT1A receptors.

serotonin transporter = target: T3, serotonin transporter (Rattus norvegicus, UniProt P31652); test: 3H-paroxetine displacement from rat frontal cortical membranes (serotonin transporter affinity); assay type: binding
T3 construct: displace ^3H-paroxetine from male rat frontal cortical membranes; from tissue; host or cells: male rat frontal cortex membranes
T3 sequence (P31652 whole entry): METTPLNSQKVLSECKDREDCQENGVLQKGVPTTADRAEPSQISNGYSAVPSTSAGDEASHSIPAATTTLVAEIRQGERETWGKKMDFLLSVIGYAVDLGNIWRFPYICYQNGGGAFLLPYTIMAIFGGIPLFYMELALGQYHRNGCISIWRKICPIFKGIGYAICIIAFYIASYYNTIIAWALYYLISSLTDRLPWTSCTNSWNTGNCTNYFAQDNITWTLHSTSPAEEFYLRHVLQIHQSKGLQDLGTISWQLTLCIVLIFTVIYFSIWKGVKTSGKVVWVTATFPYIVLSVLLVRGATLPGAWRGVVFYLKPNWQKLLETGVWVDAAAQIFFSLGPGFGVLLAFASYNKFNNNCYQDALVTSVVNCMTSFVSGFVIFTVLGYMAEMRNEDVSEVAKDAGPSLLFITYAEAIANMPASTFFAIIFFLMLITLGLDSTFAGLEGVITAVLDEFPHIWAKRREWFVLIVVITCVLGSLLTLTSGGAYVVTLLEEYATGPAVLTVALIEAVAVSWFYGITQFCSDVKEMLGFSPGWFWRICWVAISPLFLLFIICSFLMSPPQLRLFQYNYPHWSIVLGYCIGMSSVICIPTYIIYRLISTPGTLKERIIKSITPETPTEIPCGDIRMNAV

[2] = 3H-paroxetine, male rat frontal cortical membranes, read-out: 5-HT Transporter Affinity KI

Row | SMILES | melting point [°C] | pIC50 [1] | 5-HT1A Function Imax (maximum inhibitory effect) [1] | pKi (human 5-HT1A receptors) | pKi (serotonin transporter; [2]) | pKi (serotonin transporter)
1 | Fc1ccc2[nH]cc(C3=CCN(CC4COc5ccc6c(c5O4)CCCO6)CC3)c2c1 (stereo not shown) (as salt: salt) [Example 5, 5-Fluoro-3-{1-[2,3,9,10-tetrahydro-8H-[1,4]dioxino[2,3-f]chromen-2-ylmethyl]-1,2,3,6-tetrahydro-4-pyridinyl}-1H-indole] | 205 to 206 | – | – | – | – | –
2 | Cc1cc2c3c(ccc2o1)OC[C@H](CN1CC=C(c2c[nH]c4ccccc24)CC1)O3 [Example 1] | – | 6.62 | 62.0 | 7.85 | 6.73 | –
3 | Cc1cc2ccc3c(c2o1)OC(CN1CC=C(c2c[nH]c4ccccc24)CC1)CO3 (stereo not shown) [Example 1] | 198 to 200 | – | – | – | – | –
4 | C1=C(c2c[nH]c3ccccc23)CCN(CC2COc3ccc4c(c3O2)CCO4)C1 (stereo not shown) [Example 2, 3-{1-[2,3,8,9-Tetrahydrofuro[3,2-f][1,4]benzodioxin-2-ylmethyl]-1,2,3,6-tetrahydro-4-pyridinyl}-1H-indole] | 207 to 209 | 6.58 | 66.0 | 7.34 | – | 7.47
5 | C1=C(c2c[nH]c3ccccc23)CCN(CC2COc3ccc4occc4c3O2)C1 (stereo not shown) [Example 3, 3-{1-[2,3-Dihydrofuro[3,2-f][1,4]benzodioxin-2-ylmethyl]-1,2,3,6-tetrahydropyridin-4-yl}-1H-indole] | 208 to 209 | 7.72 | 61.0 | 7.71 | 6.94 | –
6 | C1=C(c2c[nH]c3ccccc23)CCN(CC2COc3ccc4c(c3O2)CCCO4)C1 (stereo not shown) [Example 4, 3-{1-[2,3,9,10-Tetrahydro-8H-[1,4]dioxino[2,3-f]chromen-2-ylmethyl]-1,2,3,6-tetrahydro-4-pyridinyl}-1H-indole] | 186 to 187 | 6.06 | 100 | 7.52 | – | 8.07
7 | Fc1ccc2[nH]cc(C3=CCN(CC4COc5ccc6c(c5O4)CCCO6)CC3)c2c1 (stereo not shown) [Example 5, 5-Fluoro-3-{1-[2,3,9,10-tetrahydro-8H-[1,4]dioxino[2,3-f]chromen-2-ylmethyl]-1,2,3,6-tetrahydro-4-pyridinyl}-1H-indole] | – | 6.46 | 100 | 7.53 | – | 8.00
